Measurements published in the Deep4Chem optical property database.
Several values for one entry are separate records, joined by “and”; a condition that tells them apart may be missing. Identical values can stand only once. Blank lines part the entries; values can stand above or below the compound they belong to.

Test: solvent given as SMILES

absorption maximum (in CC#N): 504 nm
absorption maximum (in CCCCCC): 514 nm
absorption maximum (in CCOC(C)=O): 506 nm
absorption maximum (in CO): 497 nm
absorption maximum (in ClCCl): 515 nm
SMILES: COC1=[N+]2C(=C(c3ccccc3)c3ccc(OC)n3[B-]2(F)F)C=C1SC#N

absorption maximum (in ClC(Cl)Cl): 650 nm
SMILES: CN1C(=CC2=C([S-])C(=CC3=[N+](C)c4ccccc4C3(C)C)C2=O)C(C)(C)c2ccccc21

absorption maximum (in ClC(Cl)Cl): 526 nm
SMILES: CCCCCCCCCCCC#CC#CCCCCCCCCCN1C(=O)c2ccc3c4ccc5c6c(ccc(c7ccc(c2c37)C1=O)c64)C(=O)N(CCCCCCCCCC#CC#CCCCCCCCCCCCC)C5=O

absorption maximum (in CC(C)O): 532 nm
absorption maximum (in CCO): 532 nm
absorption maximum (in CO): 526 nm
absorption maximum (in O): 521 nm
SMILES: O=C([O-])c1ccccc1-c1c2cc(I)c(=O)c(I)c-2oc2c(I)c([O-])c(I)cc12

absorption maximum (in ClCCl): 396 nm
SMILES: O=C1c2cc3ccccc3cc2C2=Nc3cccc[n+]3[B-](F)(F)N12

absorption maximum (in CS(C)=O): 644 nm
SMILES: O=C(O)COc1cccc(-c2c3nc(cc4ccc([nH]4)c(-c4cccc(OCC(=O)O)c4)c4nc(cc5ccc2[nH]5)CC4)C=C3)c1

absorption maximum (in ClCCl): 548 nm
SMILES: CCCCCCOc1cc(/C=C2\C(=O)c3ccccc3C2=C(C#N)C#N)c(OCCCCCC)cc1/C=C1\C(=O)c2ccccc2C1=C(C#N)C#N

absorption maximum (in C1COCCO1): 330 nm
absorption maximum (in CC#N): 324 nm
absorption maximum (in CCCCCC): 331 nm
absorption maximum (in CCCCCCC): 332 nm
absorption maximum (in CCCO): 328 nm
absorption maximum (in CCOC(C)=O): 328 nm
absorption maximum (in CS(C)=O): 329 nm
absorption maximum (in ClC(Cl)Cl): 332 nm
absorption maximum (in ClCCl): 330 nm
SMILES: COc1ccc(C#Cc2ccc(C#N)cc2)cc1

absorption maximum (in CC#N): 384 nm
absorption maximum (in ClCCl): 386 nm
SMILES: COc1ccc(-c2cc3c(s2)c(-c2ccccc2)cc(=O)n3C)cc1

absorption maximum (in C1COCCO1): 450 nm
SMILES: CC(=O)Nc1ccc(C2=C/C(=C\c3ccc(C#N)cc3)C(=O)N2CC(C)C)cc1

absorption maximum (in C1CCOC1): 792 nm
absorption maximum (in ClCCl): 791 nm
SMILES: CCC(CC)COC1=CC2=C3c4cc(OCC(CC)CC)c(-c5cccs5)n4[B-](F)(F)[n+]4c3n(c3cc(C(C)(C)C)ccc34)[B-](F)(F)[N+]2=C1c1cccs1

absorption maximum (in CO): 412 nm
SMILES: C1=CC2=Nc3cccc[n+]3CN2C=C1

absorption maximum (in ClCCl): 393 nm
SMILES: COc1ccc(C#Cc2nc3ccccc3nc2-c2ccn(-c3ccccc3)c2)cc1

SMILES: CCCCCCc1ccc(-n2c3[n+](c4c5ccccc5c5ccccc5c42)[B-](C)(C)c2ccc4ccccc4c2-3)cc1
absorption maximum (in C1CCOC1): 392 nm
absorption maximum (in CC#N): 385 nm
absorption maximum (in Cc1ccccc1): 393 nm
absorption maximum (in ClCCl): 390 nm

absorption maximum (in C1CCCCC1): 432 nm
absorption maximum (in CC#N): 445 nm
absorption maximum (in CCO): 448 nm
absorption maximum (in c1ccccc1): 445 nm
SMILES: CNc1cccc2c1C(=O)c1ccccc1-2

SMILES: CN(C)c1ccc(/C=C/c2cc3ccccc3c[n+]2C)cc1
absorption maximum (in CC(C)=O): 425 nm
absorption maximum (in ClCCl): 441 nm

absorption maximum (in CO): 635 nm
absorption maximum (in ClC(Cl)Cl): 649 nm
absorption maximum (in ClCCl): 650 nm
SMILES: CC[n+]1c(C=C2C(=O)C(C=C3N(C)c4ccccc4C3(C)C)=C2[O-])sc2ccccc21

absorption maximum (in C1CCCCC1): 346 nm
SMILES: CCCC1(CCC)c2cc(-c3ccc(C(C)(C)C)cc3)ccc2-c2ccc(-c3ccc4c(c3)C(CCC)(CCC)c3cc(-c5ccc(C(C)(C)C)cc5)ccc3-4)cc21

SMILES: CC(C)(C)c1ccc2c(c1)c1cc(C(C)(C)C)ccc1n2-c1ccc(-n2c3ccc(C(C)(C)C)cc3c3cc(C(C)(C)C)ccc32)c(C(=O)c2ccncc2)c1
absorption maximum (in Cc1ccccc1): 418 nm

absorption maximum (in CC#N): 337 nm
SMILES: Cc1ccc(-c2ccc(/C=C/c3ccc(Cl)cc3)cn2)nc1

absorption maximum (in ClCCl): 646 nm
SMILES: CCN(CC)c1ccc2c(-c3ccccc3C(=O)O)c3c([o+]c2c1)/C(=C/c1ccc2c(c1)c1ccccc1n2CC)CCC3

absorption maximum (in CCO): 367 nm
absorption maximum (in ClCCl): 370 nm
SMILES: O=Cc1ccc(-c2cccc(-c3nc4ccccc4s3)c2O)s1

absorption maximum (in CCO): 590 nm
absorption maximum (in O): 590 nm
SMILES: CC/[NH+]=c1\cc2oc3cc(NCCOC(=O)C(NC(=O)OC(C)(C)C)C(C)C)c4ccccc4c3nc-2cc1C (stereo not drawn)

absorption maximum (in C1COCCO1): 283 nm
absorption maximum (in CC#N): 282 nm
absorption maximum (in CCO): 282 nm
absorption maximum (in ClC(Cl)Cl): 283 nm
absorption maximum (in O): 280 nm
absorption maximum (in OCCO): 283 nm
absorption maximum (in [2H]O[2H]): 280 nm
SMILES: NC(=O)Cc1cccc2ccccc12

SMILES: CN(C)c1ccc2nc(/C=C/c3cc4c5c(c3)CCCN5CCC4)c(=O)oc2c1
absorption maximum (in C1CCCCC1): 487 nm
absorption maximum (in C1COCCO1): 495.5 nm
absorption maximum (in CC#N): 507.5 nm
absorption maximum (in CC(C)=O): 507 nm
absorption maximum (in CCCCCCC): 483 nm
absorption maximum (in CCO): 513 nm
absorption maximum (in CCOC(C)=O): 501 nm
absorption maximum (in CN(C)C=O): 516 nm
absorption maximum (in CS(C)=O): 522.5 nm
absorption maximum (in Cc1ccccc1): 505.5 nm
absorption maximum (in ClC(Cl)Cl): 517 nm
absorption maximum (in ClCCl): 514.5 nm

absorption maximum (in CC#N): 372 nm
SMILES: COc1ccc(-c2csc(/C(C#N)=C/c3ccccc3Cl)n2)cc1

SMILES: Cc1ccc(N2C(c3ccccc3[NH-])=[NH+]C(c3ccccc3)C2c2ccccc2)cc1 (stereo not drawn)
absorption maximum (in Cc1ccccc1): 328 nm

absorption maximum (in C1CCCCC1): 360 nm
absorption maximum (in CC#N): 358 nm
absorption maximum (in CO): 359 nm
absorption maximum (in ClC(Cl)Cl): 361 nm
SMILES: CC1(C)CC(/N=C/c2ccc3ccc4cccc5ccc2c3c45)CC(C)(C)N1

SMILES: Cc1cccc2[n+]1[B-](F)(F)n1c(c3cccc4cccc1c43)=N2
absorption maximum (in C1CCOC1): 472 nm
absorption maximum (in CC#N): 465 nm
absorption maximum (in CCCCCC): 464 nm
absorption maximum (in Cc1ccccc1): 475 nm
absorption maximum (in ClCCl): 441 nm

absorption maximum (in ClCCl): 376 nm
SMILES: COc1ccc(-c2cc3c(ccc4sc(/C=C/c5cccs5)cc43)s2)cc1

absorption maximum (in O): 410 nm
SMILES: O=C(O)CCCCCn1c2ccccc2c(=O)c2ccccc21

SMILES: CCC1=C(C)C2=C(c3c4ccccc4c(C)c4ccccc34)c3c(C)c(CC)c(C)n3[B-](F)(F)[N+]2=C1C
absorption maximum (in CC#N): 527 nm
absorption maximum (in CCCCCC): 529 nm
absorption maximum (in CCO): 528 nm
absorption maximum (in CN(C)C=O): 530 nm
absorption maximum (in Cc1ccccc1): 532 nm
absorption maximum (in ClCCl): 531 nm

absorption maximum (in C1CCOC1): 376 nm
SMILES: CCCCC1(CCCC)c2cc(C#Cc3ccc(C=C(c4ccccc4)c4ccccc4)cc3)ccc2-c2ccc(C#Cc3ccc(C=C(c4ccccc4)c4ccccc4)cc3)cc21

SMILES: c1ccc(-c2nc(-c3ccccc3)nc(-c3ccc(-n4c5ccccc5c5cc6c(cc54)c4ccccc4n6-c4ccccc4)cc3)n2)cc1
absorption maximum (in Cc1ccccc1): 403 nm

absorption maximum (in CC#N): 403 nm
SMILES: c1ccc2c(c1)ccc1ncc3ccc4cnccc4c3c12

SMILES: CCCCCCCCC1(CCCCCCCC)c2cc(-c3ccc(C(F)(F)F)cc3)ccc2-c2ccc(N(c3ccc(-n4c5ccccc5c5ccccc54)cc3)c3ccc4c(c3)C(CCCCCCCC)(CCCCCCCC)c3cc(-c5ccc(C(F)(F)F)cc5)ccc3-4)cc21
absorption maximum (in C1CCOC1): 375 nm
absorption maximum (in C1COCCO1): 374 nm
absorption maximum (in CC#N): 370 nm
absorption maximum (in CC(C)=O): 371 nm
absorption maximum (in CCCCCC): 380 nm
absorption maximum (in CCCCOCCCC): 379 nm
absorption maximum (in CCN(CC)CC): 376 nm
absorption maximum (in CCOC(C)=O): 372 nm
absorption maximum (in CCOCC): 374 nm
absorption maximum (in CN(C)C=O): 373 nm
absorption maximum (in CS(C)=O): 371 nm
absorption maximum (in Cc1ccccc1): 379 nm
absorption maximum (in ClC(Cl)Cl): 382 nm
absorption maximum (in ClCCl): 378 nm
absorption maximum (in c1ccccc1): 378 nm

absorption maximum (in ClC(Cl)Cl): 342 nm
SMILES: COc1c(C)c2c(c(C)c1Cl)Oc1c(C=O)c(O)c(Cl)c(C)c1C(=O)O2

absorption maximum (in ClCCl): 310 nm
SMILES: c1ccc(N2c3ccccc3C3(c4ccccc4-c4ccccc43)c3ccccc32)cc1

absorption maximum (in C1COCCO1): 340 nm
absorption maximum (in CC#N): 342 nm
absorption maximum (in CO): 345 nm
absorption maximum (in ClCCl): 338 nm
SMILES: COC(=O)c1nc2c(N)nc(N(C)C)nc2n1Cc1ccccc1

SMILES: CCN1c2ccc(/C=N/Nc3ccccn3)cc2Sc2cc(/C=N/Nc3ccccn3)ccc21
absorption maximum (in C1CCOC1): 392 nm
absorption maximum (in CS(C)=O): 398 nm
absorption maximum (in Cc1ccccc1): 392 nm
absorption maximum (in ClCCl): 393 nm

absorption maximum (in CC#N): 369 nm
absorption maximum (in CCO): 381 nm
SMILES: CC1(C)CC(=O)c2cc(F)c(F)cc2N1

SMILES: CCN(CC)c1ccc(-c2cc3c(s2)c(C(=O)OC)cc(=O)n3C)cc1
absorption maximum (in C1CCOC1): 436 nm
absorption maximum (in CC#N): 436 nm
absorption maximum (in CCO): 444 nm
absorption maximum (in CO): 444 nm
absorption maximum (in CS(C)=O): 446 nm
absorption maximum (in Cc1ccccc1): 434 nm

absorption maximum (in CC1CCCO1): 460 nm
SMILES: CCCCCCOc1cc2cc(=O)oc3ccc4cccc1c4c23

absorption maximum (in ClC(Cl)Cl): 664 nm
SMILES: CN1C(=CC2=C([O-])C(=Cc3oc4ccccc4[n+]3C)C2=C(C#N)C#N)Sc2ccccc21

SMILES: CC1(C)c2ccccc2N(c2ccccc2)c2ccc(-c3ccc(C(=O)c4ccc(-c5ccc6c(c5)C(C)(C)c5ccccc5N6c5ccccc5)cc4)cc3)cc21
absorption maximum (in Cc1ccccc1): 377.59 nm

absorption maximum (in C1CCCCC1): 586.5 nm
absorption maximum (in CCOC(C)=O): 581.5 nm
absorption maximum (in CO): 580 nm
SMILES: COC(=O)[C@H](Cc1ccc2oc3c(c2c1)=CC1=C(c2ccc(OC)cc2)c2cc4c5cc(C[C@H](NC(=O)OC(C)(C)C)C(=O)OC)ccc5oc4n2[B-](F)(F)[N+]=31)NC(=O)OC(C)(C)C

absorption maximum (in CC#N): 493 nm
absorption maximum (in CCCCCC): 499 nm
absorption maximum (in CCOC(C)=O): 495 nm
absorption maximum (in CO): 495 nm
absorption maximum (in ClCCl): 499 nm
SMILES: COc1ccc2n1[B-](F)(F)[N+]1=CC=CC1=C2c1ccccc1

absorption maximum (in ClC(Cl)Cl): 673 nm and 672 nm
SMILES: COc1ccc(-c2cc3c(o2)=CC2=Cc4cc5oc(-c6ccc(OC)cc6)cc5n4[B-](F)(F)[N+]=32)cc1

absorption maximum (in CCO): 334 nm
SMILES: C#Cc1ccc2cc3c(C)cc(=O)oc3cc2c1

absorption maximum (in CCCCCCC): 162 nm
SMILES: C=C

absorption maximum (in CC#N): 394 nm
absorption maximum (in ClCCl): 400 nm
SMILES: Cn1c(=O)cc(C(=O)c2ccccc2)c2sc(-c3ccc(OC(F)(F)F)cc3)cc21

SMILES: Cc1cc(C)c(B(c2ccccc2N(c2ccccc2)c2ccccc2)c2c(C)cc(C)cc2C)c(C)c1
absorption maximum (in Cc1ccccc1): 415 nm

absorption maximum (in ClCCl): 376 nm
SMILES: c1cc(-c2c3ccccc3c(-c3ccc4ccccc4c3)c3ccccc23)cc(-n2c3ccccc3c3ccccc32)c1
